From article PMC11729425 (ACS Pharmacology & Translational Science, 2024)

Columns and labels:
Aged C57BL/6J mice [1] = assay: Hanging test; format: in vivo, C57BL/6JRj mice; conditions: 1 mg/kg in the food, week 7, normalized to BW
Protocol: Mice were allowed to acclimate to the testing room for 30 min before the experiment. Each mouse was positioned on a wire grid, gripping it with all four limbs. The grid was then inverted, causing the mouse to hang, and the duration it could maintain this position was recorded. The maximum trial length was set at 2 min and 30 s (150 s). The latency to fall was measured five times for each mouse, with 10 min intervals between trials.

Aged C57BL/6J mice [2] = assay: Uphill running; format: in vivo, C57BL/6JRj mice; conditions: 1 mg/kg in the food, week 13, trend for improvement
Protocol: Animals were placed on a treadmill at a speed of 15 cm/s in the beginning, then speed was increased by 3 cm/s every 12 min, with an incline of 5°. Mice were taken off the treadmill if they were considered exhausted (5 or more shocks (0.1 mA) per minute for two consecutive minutes) or if the maximum duration of the test was reached (3 h). The maximum running time before exhaustion was recorded and registered as maximum uphill running time.[34]

Aged C57BL/6J mice [3] = assay: Metabolic cages (CLAMS): energy expenditure and activity; format: in vivo, C57BL/6JRj mice; conditions: 1 mg/kg in the food, week 19, CLAMS
Protocol: Energy expenditure and activity during day and night were measured using the CLAMS monitoring system (Columbus instruments). Mice were housed in metabolic cages for 48 h.

Aged C57BL/6J mice [4] = assay: Lean mass (echoMRI) and muscle weight at sacrifice in aged mice; format: in vivo, C57BL/6JRj mice; conditions: 1 mg/kg in the food
Protocol: At the first and last (week 20) after experiment onset (as indicated in Figure 2A), body composition analysis was conducted. Each mouse was placed for short in an Echo-MRI (magnetic resonance imaging) machine, specifically the 3-in-1 model from Echo Medical Systems. This procedure recorded lean mass, along with total body weight, with each measurement taking approximately 1 min per individual.
Prior to sacrifice, mice were fasted for 4 h in the morning. Animals were sacrificed between 1:30 and 4 p.m. Mice were anesthetized with isoflurane, followed by a complete blood draw from the vena cava and perfusion with cold phosphate-buffered saline. Immediately thereafter, various tissues including liver, kidney, spleen, heart, brain, gastrocnemius muscle and tibialis anterior muscle were harvested, weighted and promptly flash-frozen in liquid nitrogen.

N2 wild-type C. elegans = assay: Lifespan measurements in C. elegans; format: in vivo, Caenorhabditis elegans
Protocol: Lifespan assays were conducted at 20 °C unless otherwise noted. Synchronous populations were generated by hypochlorite treatment of gravid adults to obtain tightly synchronized embryos, which were then allowed to develop into adulthood under defined conditions. 20–25 worms were placed on NGM plates containing 5-FU seeded with E. coli OP50 bacteria. ALT-007 at a final concentration of 5 μM was added to the top of the plates diluted in DMSO, and DMSO was used at the same concentration as a control. Each condition included at least 170 animals per experiment.
The day of egg collection was designated as t = 0. Animals were transferred to fresh plates every 3 days and examined daily for touch-provoked movement and pharyngeal pumping, until death. Worms that died due to internal hatching of eggs, extruded gonads, or desiccation from crawling off the plate were censored accordingly. Each survival assay was repeated at least twice, and figures show representative results.
Survival curves were generated using the Kaplan–Meier product-limit method. The log-rank (Mantel–Cox) test was used to assess differences in survival and calculate P values. Statistical analyses and lifespan values were determined using GraphPad Prism 10 software. Complete lifespan statistics are presented in Supporting Information Table 1.

GMC101 worms = assay: Paralysis scoring in amyloid beta expressing GMC101 worms; format: in vivo, Caenorhabditis elegans; conditions: GMC101, 1 μM, day 1 of adulthood
Protocol: At least 100 worms per condition were manually scored for paralysis after poking. Results are representative of data obtained from at least two independent experiments. ALT-007 was administered at 1 μM and DMSO was used as a control. GMC101 animals were used and scoring was performed at day 1 of adulthood.

[5] = test system: GMC101 and CL2120 amyloid beta expressing animals; assay: Amyloid beta aggregation in C. elegans (Western blot); format: in vivo, Caenorhabditis elegans
Protocol: Figure 5 ALT-007 increases lifespan, improves healthspan and reduces protein aggregation in C. elegans. (A) Median and maximal lifespan of […]. elegans animals treated with ALT-007 or vehicle (5 μM). N = 2 biological replicates with at least 170 animals per group. (B) Paralysis and movement analysis of amyloid beta (Ab)-expressing animals treated with ALT-007 or vehicle (1 μM) at day 1 of adulthood. N = 2 biological replicates with at least 50 animals per group. (C) Amyloid aggregation upon ALT-007 treatment and DMSO as a control in GMC101 and CL2120 amyloid beta expressing animals and their respective controls. N = 3 biological replicates with at least 100 animals per group. (D) Quantification of amyloid beta (Ab) levels upon ALT-007 treatment. The log-rank (Mantel-Cox) test was used to evaluate differences between survival curves as indicated in Supplementary Table 1. two-tailed t-test was performed for two-group analysis and one-way analysis of variance (ANOVA) for three-group analysis. Sample preparation: Synchronized animal populations were collected and washed in M9 buffer. […] Protein samples were analyzed by Tricine-SDS-polyacrylamide gel electrophoresis (SDS-PAGE) and transferred to nitrocellulose membrane. Proteins were detected using the following antibodies under the manufacturer's conditions: antiβ-actin (Sigma) and antiAmyloid-beta, 1-16 (6E10) (BioLegend).

[6] = set-up: method as in PMID 29669694; conditions: compared to Myriocin; cited from earlier work
[7] = set-up: method as in PMID 29669694; conditions: cited from earlier work

## COc1cc(C(=O)N2CC[C@H](NC(=O)c3ccccc3OC(F)(F)F)c3c2cnn3C(C)C)cnc1OC [ALT-007]
Aged C57BL/6J mice [1]
  maximum hanging time: increased compared to aged control mice
Aged C57BL/6J mice [2]
  ability to run uphill (maximum running time): did not significantly improve
Aged C57BL/6J mice [3]
  energy expenditure (kCal/h) at night: significant increase
Aged C57BL/6J mice [3]; vs aged control
  global physical activity: completely restored the decline in global physical activity
Aged C57BL/6J mice [4]; after 11 weeks
  lean mass measured by echoMRI: increased lean mass
Aged C57BL/6J mice [4]; at sacrifice after 20 weeks
  muscle weight (gastrocnemius, tibialis anterior): increased muscle weight
N2 wild-type C. elegans; C. elegans, administration at the embryo stage
  toxicity for animal development: nontoxic for animal development
N2 wild-type C. elegans; N2 wild-type, 5 μM, 20 °C
  maximal lifespan: significantly increased
  median lifespan: significantly increased
GMC101 worms
  paralysis induced by amyloid beta aggregation: reduce paralysis
[5]; CL2120 strain (CL2122 as a control)
  amyloid beta aggregation: reduce aggregation
[5]; GMC101 worms
  amyloid beta aggregates: reducing amyloid beta aggregates
[6]
  permeability: improved
[7]
  oral bioavailability: orally bioavailable
[7]; rodents
  toxicity in long-term dosing: non-toxic in long-term dosing in rodents
